Test results published in patent US20100279327A1, “METHOD OF TREATING DISEASES WITH PARP INHIBITORS” (BiPar Sciences, Inc., priority 2006, published 2010).

Test system: PARP1 (poly (ADP-ribose) polymerase family, member 1)
Assay: PARP1 mRNA expression, Affymetrix human genome GeneChip (probe set 208644_at), Diff/X and e-Northern
Conditions: Normal; for PARP1 expression, Experiment Mean: patients taking the medication, signal intensity of 208644_at; for PARP1 Fold change (FC): patients taking vs patients not taking the medication
Description: GeneChip arrays have been widely used for monitoring mRNA expression in many areas of biomedical research. The high-density oligonucleotide array technology allows researchers to monitor tens of thousands of genes in a single hybridization experiment as they are expressed differently in tissues and cells. The expression profile of a mRNA molecule of a gene is obtained by the combined intensity information from probes in a probe set, which consists of 11-20 probe pairs of oligonucleotides of 25 by in length, interrogating a different part of the sequence of a gene.
The gene expressions were assessed using the Affymetrix human genome genechips (45,000 gene transcripts covering 28,473 UniGene clusters). Approximately 5 μg total RNA from each sample were labeled using high yield transcript labeling kit and labeled RNAs were hybridized, washed, and scanned according to manufacturer's specifications (Affymetrix, Inc., Santa Clara, Calif.). Affymetrix Microarray Suite 5.0 software (MASS) was used to estimate transcript signal levels from scanned images (Affymetrix). The signals on each array were normalized to a trimmed mean value of 500, excluding lowest 2% and highest 2% of the signals. An Affymetrix probe set representing a unique Genbank sequence is referred as a probe or gene hereafter for convenience. To verify any errors in the expressions caused by image defects, the correlation coefficient of each array to an idealized distribution was determined where the idealized distribution is mean of all arrays. The genes are filtered from the remaining arrays using detection P value reported by MASS. The genes having P>0.065 in 95% of the arrays are eliminated and all other signals are included for statistical comparisons of classes.
The PARP1 gene is represented on the HG-U133A array by a single probe set with the identifier W208644_at”. All results in this report were generated based on the MASS expression signal intensities for this probe set and will be referred to as “PARP1”.
The PARP1 gene is represented on the HG-U133A array by a single probe set with the identifier “208644_at”. All results in this report were generated based on the MASS expression signal intensities for this probe set and will be referred to as “PARP1”. In addition, the seven genes, BRCA1, BRCA2, RAD51, MRE11, p53, PARP2 and MUCIN 16, are represented on the HG-U133A/B array set by 11 informative probe sets. Three probe sets were excluded from this analysis because they were considered to be non-responsive on the array.
RNA is evaluated for quality and integrity (via Agilent Bioanalyzer derived […] ratio and RNA integrity number (RIN)), purity (via absorbance ratio at A260/A280), and quantity (via absorbance at A260 or alternative assay (i.e. ribogreen)), Quantity and purity of cRNA synthesis product is assessed using UV absorbance. Quality of cRNA synthesis is assessed using either the Agilent Bioanalyzer or a MOPS agarose gel. Array quality is evaluated using a proprietary high throughput application by which arrays are evaluated against several strict objective standards such as 5′/3′ GAPDH ratio, signal/noise ratio. and background as well as over thirty additional metrics (e.g. outlier, vertical variance). Data generated throughout the process is managed within the quality system to ensure data integrity of the data.
23, 122, and 57 pathologically normal tissue samples were used to determine baseline expression of the PARP1 gene in endometroid, lung, and prostate tissue, respectively. The mean and 90%, 95%, 99%, and 99.9% upper confidence limits for an individual predicted value (UCLs) were calculated. Because we are assessing the likelihood that individual samples external to the normal set are within the baseline distribution, the prediction interval, rather than the confidence interval for the mean, was selected to estimate the expected range for future individual measurements. […]

[1] = Stomach, positive = up-regulated, negative = down-regulated
[2] = Superior Temporal Gyrus (Brodmann Area 22)

PARP1 expression, Experiment Mean (Stomach)	PARP1 Fold change (FC) [1]	Compound	also measured
176.85	−1.24	CC(C)c1c(C(=O)Nc2ccccc2)c(-c2ccccc2)c(-c2ccc(F)cc2)n1CC[C@@H](O)C[C@@H](O)CC(=O)O [Atorvastatin]	
		CC(C)NCC(O)COc1ccc(CC(N)=O)cc1 (centres unmarked) [Atenolol]	PARP1 expression, Experiment Mean (Ovary): 138.57; PARP1 Fold change (FC) (Ovary, negative = down-regulated): −1.22
228.75	1.27	Estrogens	
		CC(=O)Nc1ccc(O)cc1 [Acetaminophen]	PARP1 expression, Experiment Mean [2]: 290.49; PARP1 Fold change (FC) [2]: 1.28
